Patent US20190330192A1, “SUBSTITUTED AZOLYLPYRROLONES AND AZOLYLHYDANTOINS AND SALTS THEREOF AND USE THEREOF AS HERBICIDAL ACTIVE SUBSTANCES” (Bayer CropScience Aktiengesellschaft, priority 2016, published 2019)

Target: T1, photosystem II (PS II) (Spinacia oleracea, UniProt P69560)
T1 construct: the chloroplasts were osmotically ruptured and the thylakoid membranes were then obtained by centrifugation; from tissue; host or cells: fresh spinach leaves; thylakoid membranes from isolated chloroplasts
Assay: Measurement of the PS II activity in thylakoid membranes (DCPIP reduction)
Assay type: biochemical
Settings: test compound at 100 μM; spinach thylakoid membranes; DCPIP absorption at 595 nm over 10 min at 22° C. with exposure to light; read-out: Effect (inhibition of PS II activity)
Method: Cooled fresh spinach leaves were comminuted and homogenized in 50 mM phosphate buffer, pH 6.8. 10 mM KCl, 0.34 M sucrose (sucrose buffer) (blender, 1 g of plant material/ml). The homogenate was subsequently filtered through 4 layers of Miracloth and the chloroplasts were isolated by centrifugation, i.e. 10 min of centrifugation at 4400×g (4° C.). The sediment was suspended in 25 ml of sucrose buffer and re-centrifuged for 10 min at 4400×g (4° C.). The sediment was then suspended in 40 ml of 50 mM phosphate buffer, pH 6.8, 10 mM KCl, without sucrose. In this step, the chloroplasts were osmotically ruptured and the thylakoid membranes were then obtained by centrifugation (10 min, 4400×g, 4° C.). The membrane sediment was finally suspended in 20 ml of 50 mM phosphate buffer, pH 6.8, 10 mM KCl. […]
The electron transfer from PS II to an artificial electron acceptor, 2,6-dichlorophenolindophenol (DCPIP), was measured with exposure to light. The concentration of the blue oxidized form of DCPIP was determined spectrophotometrically at wavelength λ=595 nm. […]
Depending on the activity of the PS II preparation, the dilution was adjusted such that the measurement of the decrease in absorption (λ=595 nm) was linear for at least 10 min. […] On each microtiter plate, a known PS II inhibitor, for example metribuzin, was used as standard, which allowed the quality of the PS II test to be assessed. […]

inhibition at 100 µM (stock) [%]	inhibition at 100 µM [%]	SMILES
30 to 50	–	CCC(=O)OC1C(C)=C(Cl)C(=O)N1c1nc(SC)n(C)n1 (centres unmarked) [1.74-185, 4-Chloro-3-methyl-1-[1-methyl-5-(methylsulfanyl)-1H-1,2,4-triazol-3-yl]-5-oxo-2,5-dihydro-1H-pyrrol-2-ylpropionate]
–	50 to 70	CC1=C(Cl)C(=O)N(c2nnn(C)n2)C1O (centres unmarked) [1.82-2, 3-Chloro-5-hydroxy-4-methyl-1-(1-methyl-1H-1,2,4,5-tetrazol-3-yl)-1,5-dihydro-2H-pyrrol-2-one]
